Measurements reported in US9957274B2, “Indane inhibitors of EED and methods of their use” (AbbVie Inc., priority 2016, dated 2018).
Read-outs that look alike come from different tables or passages of the source.

What was measured:
Pfeiffer cells = assay: CTG cell viability assay (CellTiter-Glo); type: cell-based; details: Homo sapiens, 240 h
Procedure: 1,000 cells were plated into each well of 96-well Corning CellBing cell culture plates and incubated overnight at 37° C. in a humidified CO2 incubator. […] The cell culture plates were then incubated for 10 more days. CTG cell viability assay was performed on the cell culture samples by using CellTiter-Glo® Luminescent Cell Viability Assay Kit (Promega).

[1] = tested on: H3K27me3 in OCILY19 cells; assay: H3K27me3 AlphaLISA assay in OCILY19 cells; type: cell-based; details: Homo sapiens, OCI-LY19, 144 h, 6 days with compound, read-out: OCILY-19 IC50
Procedure: (§1) 5,000 cells were plated into each well of 96-well Corning CellBing cell culture plates and incubated overnight at 37° C. in a humidified CO2 incubator. […] The cell culture plates were then incubated for 6 more days. H3K27me3 AlphaLISA assay was performed on the cell culture samples by using AlphaLISAR® H3K27me3 Cellular Detection Kit (PerkinElmer) and 96-well white half-area plates (PerkinElmer).

H3K27me3 in G401 cells = assay: H3K27me3 AlphaLISA assay in G401 cells; type: cell-based; details: Homo sapiens, G-401, 144 h, 6 days with compound
Procedure: as §1, with “G401 cells (ATCC catalog # CRL-1441) were maintained in McCoy's 5a medium (ATCC) supplemented with 10% heat-inactivated FBS (HyClone) at 37° C. in a humidified CO2 incubator. OCILY19 cells (DSMZ catalog #ACC 528) were maintained in IMDM (Invitrogen) supplemented with 10% human serum (Sigma) at 37° C. in a humidified CO2 incubator. 5,000” for “5,000”

EED = EED (Homo sapiens, UniProt O75530); assay: EED TR-FRET Binding Assay (modified LanthaScreen competition assay)
Outline: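 Competition binding in a modified LanthaScreen format, in 20 mM Tris-HCl pH 7.5, 200 mM NaCl, 0.01% Tween-20, 10 uM DTT and 0.05% BSA. Reactions ran 1 hour at 25° C before TR-FRET detection.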

[2] = Pfeiffer cells, 10 days with compound, CellTiter-Glo, read-out: Cell Proliferation IC50

Chain of EED (O75530 whole entry): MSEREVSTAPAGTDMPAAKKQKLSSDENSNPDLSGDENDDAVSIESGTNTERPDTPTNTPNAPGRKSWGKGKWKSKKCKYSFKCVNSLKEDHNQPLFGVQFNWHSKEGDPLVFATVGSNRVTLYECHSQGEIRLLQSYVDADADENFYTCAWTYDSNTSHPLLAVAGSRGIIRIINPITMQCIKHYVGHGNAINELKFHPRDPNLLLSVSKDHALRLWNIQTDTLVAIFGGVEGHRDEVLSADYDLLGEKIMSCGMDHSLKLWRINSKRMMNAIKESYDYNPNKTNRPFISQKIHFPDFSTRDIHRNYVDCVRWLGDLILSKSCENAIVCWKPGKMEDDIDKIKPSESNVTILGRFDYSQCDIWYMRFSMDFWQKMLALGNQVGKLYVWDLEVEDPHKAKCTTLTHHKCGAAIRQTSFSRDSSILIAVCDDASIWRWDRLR

SMILES	IC50 [1] [nM]	IC50 (H3K27me3 in G401 cells) [nM]	IC50 (EED) [nM]	IC50 (Pfeiffer cells; [2]) [µM]	IC50 (Pfeiffer cells; Pfeiffer, read-out: Cell Proliferation IC50 (uM)) [µM]
CN(C)[C@H]1CN(C2CCc3cccc(F)c32)C[C@@H]1C1CCN(c2ccccn2)CC1 (mixture of isomers) [Example 152, rac-(3R,4S)-1-(7-fluoro-2,3-dihydro-1H-inden-1-yl)-N,N-dimethyl-4-[1-(pyridin-2-yl)piperidin-4-yl]pyrrolidin-3-amine]	1790	476	2.04	0.804	–
CC(=O)N1CCN(c2ccc([C@H]3CN([C@H]4CCc5cccc(F)c54)C[C@@H]3N(C)C)cc2)CC1 [Example 45, 1-[4-(4-{(3S,4R)-4-(dimethylamino)-1-[(1S)-7-fluoro-2,3-dihydro-1H-inden-1-yl]pyrrolidin-3-yl}phenyl)piperazin-1-yl]ethan-1-one]	43.3	31.1	0.303	–	0.0284
CN1CCN(c2cccc3c([C@H]4CN(C5CCc6cccc(F)c65)C[C@@H]4N(C)C)cn(C)c23)CC1=O (mixture of isomers) [Example 129, rac-4-{3-[(3S,4R)-4-(dimethylamino)-1-(7-fluoro-2,3-dihydro-1H-inden-1-yl)pyrrolidin-3-yl]-1-methyl-1H-indol-7-yl}-1-methylpiperazin-2-one]	102	186	0.739	0.0981	–
CN(C)[C@H]1CN(C2CCc3cccc(F)c32)C[C@@H]1c1cn(C)c2c(C(=O)N3CCN(S(=O)(=O)c4cncn4C)CC3)cccc12 (mixture of isomers) [Example 135, rac-{3-[(3S,4R)-4-(dimethylamino)-1-(7-fluoro-2,3-dihydro-1H-inden-1-yl)pyrrolidin-3-yl]-1-methyl-1H-indol-7-yl}[4-(1-methyl-1H-imidazole-5-sulfonyl)piperazin-1-yl]methanone]	719	108	1.45	0.115	–
CN(C)[C@H]1CN(C2CCc3cccc(F)c32)C[C@@H]1C1CCN(c2ccc(C(N)=O)nn2)CC1 (mixture of isomers) [Example 165, rac-6-{4-[(3S,4R)-4-(dimethylamino)-1-(7-fluoro-2,3-dihydro-1H-inden-1-yl)pyrrolidin-3-yl]piperidin-1-yl}pyridazine-3-carboxamide]	272	55.9	0.48	0.286	–
CN(C)[C@H]1CN(C2CCc3cccc(F)c32)C[C@@H]1C1CCN(c2ccc(C(N)=O)cc2)CC1 (mixture of isomers) [Example 166, rac-4-{4-[(3S,4R)-4-(dimethylamino)-1-(7-fluoro-2,3-dihydro-1H-inden-1-yl)pyrrolidin-3-yl]piperidin-1-yl}benzamide]	275	228	0.454	0.129	–
CN(C)[C@H]1CN(C2CCc3cccc(F)c32)C[C@@H]1c1cn(C)c2cc(C(=O)N3CC[C@@H](O)C3)ccc12 (mixture of isomers) [Example 112, rac-{3-[(3S,4R)-4-(dimethylamino)-1-(7-fluoro-2,3-dihydro-1H-inden-1-yl)pyrrolidin-3-yl]-1-methyl-1H-indol-6-yl}[(3R)-3-hydroxypyrrolidin-1-yl]methanone]	446	70.2	1.2	0.133	–
CN(C)[C@H]1CN(C2CCc3cccc(F)c32)C[C@@H]1c1nn(C)c2ccccc12 (mixture of isomers) [Example 156, rac-(3R,4S)-1-(7-fluoro-2,3-dihydro-1H-inden-1-yl)-N,N-dimethyl-4-(1-methyl-1H-indazol-3-yl)pyrrolidin-3-amine]	293	212	1.41	0.375	–
CN(C)[C@H]1CN(C2CCc3cccc(F)c32)C[C@@H]1c1ccc(-c2cnn(C)c2)cc1 (mixture of isomers) [Example 70, rac-(3R,4S)-1-(7-fluoro-2,3-dihydro-1H-inden-1-yl)-N,N-dimethyl-4-[4-(1-methyl-1H-pyrazol-4-yl)phenyl]pyrrolidin-3-amine]	248	129	0.853	0.266	–
CN(C)[C@H]1CN(C2CCc3cccc(F)c32)C[C@@H]1c1ccc(-c2cnn(CC(N)=O)c2)cc1 (mixture of isomers) [Example 71, rac-2-(4-{4-[(3S,4R)-4-(dimethylamino)-1-(7-fluoro-2,3-dihydro-1H-inden-1-yl)pyrrolidin-3-yl]phenyl}-1H-pyrazol-1-yl)acetamide]	155	52.1	1.13	0.108	–
CN(C)[C@H]1CN(C2CCc3cccc(F)c32)C[C@@H]1c1cn(C)c2c(C(=O)N3CC(S(C)(=O)=O)C3)cccc12 (mixture of isomers) [Example 110, rac-{3-[(3S,4R)-4-(dimethylamino)-1-(7-fluoro-2,3-dihydro-1H-inden-1-yl)pyrrolidin-3-yl]-1-methyl-1H-indol-7-yl}[3-(methanesulfonyl)azetidin-1-yl]methanone]	379	225	1.05	0.111	–
CN(C)[C@H]1CN(C2CCc3cccc(F)c32)C[C@@H]1C1CCN(c2ncc(C(N)=O)s2)CC1 (mixture of isomers) [Example 162, rac-2-{4-[(3S,4R)-4-(dimethylamino)-1-(7-fluoro-2,3-dihydro-1H-inden-1-yl)pyrrolidin-3-yl]piperidin-1-yl}-1,3-thiazole-5-carboxamide]	492	291	0.646	0.216	–

Continued by falling IC50 [1], values first:

IC50 [1] [nM]	IC50 (H3K27me3 in G401 cells) [nM]	IC50 (EED) [nM]	SMILES	IC50 (Pfeiffer cells; [2]) [µM]	IC50 (Pfeiffer cells; Pfeiffer, read-out: Cell Proliferation IC50 (uM)) [µM]
1760	244	4.77	CN(C)[C@@H]1CN(C2CCc3cccc(F)c32)C[C@H]1c1ccc(Br)cc1 (mixture of isomers) [Example 6, rac-(3S,4R)-4-(4-bromophenyl)-1-(7-fluoro-2,3-dihydro-1H-inden-1-yl)-N,N-dimethylpyrrolidin-3-amine]	3.3	–
1140	636	2.58	CN(C)[C@H]1CN(C2CCc3cccc(F)c32)C[C@@H]1C1CCN(c2cccnc2)CC1 (mixture of isomers) [Example 149, rac-(3R,4S)-1-(7-fluoro-2,3-dihydro-1H-inden-1-yl)-N,N-dimethyl-4-[1-(pyridin-3-yl)piperidin-4-yl]pyrrolidin-3-amine]	0.97	–
944	449	2.85	COC(=O)c1ccc([C@@H]2CN(C3CCc4cccc(F)c43)C[C@H]2N(C)C)cc1 (mixture of isomers) [Example 22, rac-methyl 4-[(3R,4S)-4-(dimethylamino)-1-(7-fluoro-2,3-dihydro-1H-inden-1-yl)pyrrolidin-3-yl]benzoate]	0.422	–
363	185	0.633	CN(C)[C@@H]1CN(C2CCc3cccc(F)c32)C[C@H]1c1ccc(N2CCN(c3ccncn3)CC2)cc1 (mixture of isomers) [Example 74, rac-(3S,4R)-1-(7-fluoro-2,3-dihydro-1H-inden-1-yl)-N,N-dimethyl-4-{4-[4-(pyrimidin-4-yl)piperazin-1-yl]phenyl}pyrrolidin-3-amine]	0.107	–
306	576	1.75	CN(C)[C@@H]1CN(C2CCc3cccc(F)c32)C[C@H]1c1ccc2c(c1)OCO2 (mixture of isomers) [Example 65, rac-(3S,4R)-4-(2H-1,3-benzodioxol-5-yl)-1-(7-fluoro-2,3-dihydro-1H-inden-1-yl)-N,N-dimethylpyrrolidin-3-amine]	0.948	–
183	30.6	1.01	CN(C)[C@H]1CN(C2CCc3cccc(F)c32)C[C@@H]1c1cn(C)c2c(C(=O)N3CC(F)C3)cccc12 (mixture of isomers) [Example 103, rac-{3-[(3S,4R)-4-(dimethylamino)-1-(7-fluoro-2,3-dihydro-1H-inden-1-yl)pyrrolidin-3-yl]-1-methyl-1H-indol-7-yl}(3-fluoroazetidin-1-yl)methanone]	0.0648	–
69.5	34.4	0.782	CN(C)[C@H]1CN(C2CCc3cccc(F)c32)C[C@@H]1c1cn(C)c2c(C(=O)N3CC(O)C3)cccc12 (mixture of isomers) [Example 106, rac-{3-[(3S,4R)-4-(dimethylamino)-1-(7-fluoro-2,3-dihydro-1H-inden-1-yl)pyrrolidin-3-yl]-1-methyl-1H-indol-7-yl}(3-hydroxyazetidin-1-yl)methanone]	0.0749	–
